From patent US20220220128A1, “HETEROCYCLIC COMPOUNDS AS KINASE INHIBITORS, COMPOSITIONS COMPRISING THE HETEROCYCLIC COMPOUND, AND METHODS OF USE THEREOF” (JS Innopharm (Shanghai) Ltd, priority 2019, published 2022)

Key:
TT cells = assay: TT Cell Proliferation Assay (WST-8, 8 days); format: cell-based; details: Homo sapiens, TT, 192 h, growth inhibition in TT cells, read-out: TT Cellular Activity
Summary of the method: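 IC50 was derived from absorbance at 450 nm after 5 h with WST-8, following 8 days' incubation at 37 °C. Final compound levels spanned 0.0005–5 μM in 0.5% DMSO. TT cells were seeded at 6,000 per well in 10% FBS RPMI-1640 and left to attach for 24 h beforehand.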

human RET kinase = target: T1, human RET kinase (Homo sapiens, UniProt P07949); assay: RET Kinase Assay (LanthaScreen TR-FRET enzymatic assay); format: biochemical; details: 7 nM RET, 23 μM ATP
T1 construct: purchased Carna 08-159
Summary of the method: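 TR-FRET enzymatic read-out using 23 μM ATP, 3 μM FAM-P2 substrate and 7 nM human RET, after 15-min compound pretreatment at room temperature and a 1 h reaction at 28° C in HEPES pH 7.5 buffer. Percent of DMSO control fitted to nonlinear sigmoid curves for IC50.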

BAF3-KIF5B-RET cells = target: T2, BAF3-KIF5B-RET cells (Homo sapiens, UniProt P07949); assay: BAF3-KIF5B-RET Cell proliferation assay (CellTiter-Glo, 72 hours); format: cell-based; details: growth inhibition, read-out: BA/F3-KIF5B-RET Cellular activity
T2 construct: fused on or other part: P33176 (Kinesin-1 heavy chain)
Summary of the method: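 Cells seeded at 2,000/well in RPMI-1640 with 10% FBS and left 24 h at 37 °C, then exposed 72 h to nine compound levels (final 1 μM down to 0.00015 μM, 0.1% DMSO). CellTiter-Glo luminescence gave viability versus DMSO wells, from which IC50 was fitted.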

human KDR kinase = target: T3, human KDR kinase (Homo sapiens, UniProt P35968); assay: KDR Kinase Assay (LanthaScreen TR-FRET enzymatic assay); format: biochemical; details: 1.2 nM KDR, 92 μM ATP
T3 construct: purchased Carna 08-191
Summary of the method: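 TR-FRET enzymatic format: after 15-min room-temperature compound pretreatment, 1.2 nM human KDR phosphorylated 3 μM FAM-P22 with 92 μM ATP (HEPES pH 7.5, 28° C., one hour). Reactions were quenched with EDTA buffer. IC50 came from nonlinear sigmoid fits of percent-of-vehicle signal ratios.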

T1 sequence (P07949 29-1114): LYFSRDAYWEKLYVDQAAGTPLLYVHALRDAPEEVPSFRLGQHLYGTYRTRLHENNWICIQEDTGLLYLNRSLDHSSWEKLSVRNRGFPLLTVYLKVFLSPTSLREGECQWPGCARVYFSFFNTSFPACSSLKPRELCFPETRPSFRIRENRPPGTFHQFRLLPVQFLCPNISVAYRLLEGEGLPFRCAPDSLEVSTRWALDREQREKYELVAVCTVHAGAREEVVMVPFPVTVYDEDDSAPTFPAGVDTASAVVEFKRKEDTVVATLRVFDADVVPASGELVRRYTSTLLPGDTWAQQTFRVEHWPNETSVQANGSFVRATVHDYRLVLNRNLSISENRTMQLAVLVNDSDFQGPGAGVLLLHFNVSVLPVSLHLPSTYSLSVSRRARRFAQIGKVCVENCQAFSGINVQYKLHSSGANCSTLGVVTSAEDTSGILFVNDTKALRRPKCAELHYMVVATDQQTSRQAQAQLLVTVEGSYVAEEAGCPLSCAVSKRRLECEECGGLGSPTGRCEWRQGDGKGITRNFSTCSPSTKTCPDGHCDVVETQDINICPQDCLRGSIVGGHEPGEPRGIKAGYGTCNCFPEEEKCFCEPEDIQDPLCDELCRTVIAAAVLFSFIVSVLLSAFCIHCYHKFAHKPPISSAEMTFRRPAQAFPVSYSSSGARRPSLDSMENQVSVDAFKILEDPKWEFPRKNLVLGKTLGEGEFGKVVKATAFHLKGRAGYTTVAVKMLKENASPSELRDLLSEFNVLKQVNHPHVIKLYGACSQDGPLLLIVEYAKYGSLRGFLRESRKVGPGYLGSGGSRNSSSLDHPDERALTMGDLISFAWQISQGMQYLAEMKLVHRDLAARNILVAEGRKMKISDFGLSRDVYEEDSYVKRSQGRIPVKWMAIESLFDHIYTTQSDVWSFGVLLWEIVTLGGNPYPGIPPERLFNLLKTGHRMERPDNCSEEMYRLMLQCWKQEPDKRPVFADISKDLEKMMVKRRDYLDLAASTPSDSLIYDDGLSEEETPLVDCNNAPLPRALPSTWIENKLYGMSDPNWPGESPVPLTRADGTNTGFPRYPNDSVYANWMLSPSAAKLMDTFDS
T2 sequence (P07949 whole entry, change not shown, the tested form may be a part): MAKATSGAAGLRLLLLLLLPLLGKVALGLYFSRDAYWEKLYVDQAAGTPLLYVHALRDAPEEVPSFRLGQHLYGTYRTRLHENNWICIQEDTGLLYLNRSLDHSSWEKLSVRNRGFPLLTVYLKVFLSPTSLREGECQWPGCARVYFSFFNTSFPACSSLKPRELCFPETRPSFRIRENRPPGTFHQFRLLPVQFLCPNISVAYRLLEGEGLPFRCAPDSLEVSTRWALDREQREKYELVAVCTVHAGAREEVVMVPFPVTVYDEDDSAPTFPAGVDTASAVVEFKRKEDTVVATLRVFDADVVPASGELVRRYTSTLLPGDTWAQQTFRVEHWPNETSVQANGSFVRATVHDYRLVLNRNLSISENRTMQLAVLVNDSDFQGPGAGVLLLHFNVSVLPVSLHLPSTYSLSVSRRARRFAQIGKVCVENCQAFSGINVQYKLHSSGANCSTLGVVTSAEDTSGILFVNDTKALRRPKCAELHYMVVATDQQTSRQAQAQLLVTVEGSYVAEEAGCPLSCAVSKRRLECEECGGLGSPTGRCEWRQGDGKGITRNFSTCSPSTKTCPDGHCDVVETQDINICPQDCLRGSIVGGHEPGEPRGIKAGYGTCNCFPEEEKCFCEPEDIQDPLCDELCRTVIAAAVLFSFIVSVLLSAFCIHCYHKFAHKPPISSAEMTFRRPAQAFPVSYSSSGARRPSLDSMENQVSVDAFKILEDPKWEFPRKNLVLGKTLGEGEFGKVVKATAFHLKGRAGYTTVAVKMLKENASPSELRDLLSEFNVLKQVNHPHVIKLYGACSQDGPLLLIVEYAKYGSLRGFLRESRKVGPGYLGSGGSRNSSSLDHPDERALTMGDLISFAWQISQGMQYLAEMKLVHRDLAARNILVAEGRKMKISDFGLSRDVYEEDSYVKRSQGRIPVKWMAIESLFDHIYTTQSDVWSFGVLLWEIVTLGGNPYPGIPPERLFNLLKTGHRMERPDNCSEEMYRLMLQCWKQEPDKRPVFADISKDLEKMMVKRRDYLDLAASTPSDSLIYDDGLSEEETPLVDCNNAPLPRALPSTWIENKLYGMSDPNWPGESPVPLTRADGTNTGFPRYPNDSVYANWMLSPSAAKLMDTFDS
T3 sequence (P35968 20-1356): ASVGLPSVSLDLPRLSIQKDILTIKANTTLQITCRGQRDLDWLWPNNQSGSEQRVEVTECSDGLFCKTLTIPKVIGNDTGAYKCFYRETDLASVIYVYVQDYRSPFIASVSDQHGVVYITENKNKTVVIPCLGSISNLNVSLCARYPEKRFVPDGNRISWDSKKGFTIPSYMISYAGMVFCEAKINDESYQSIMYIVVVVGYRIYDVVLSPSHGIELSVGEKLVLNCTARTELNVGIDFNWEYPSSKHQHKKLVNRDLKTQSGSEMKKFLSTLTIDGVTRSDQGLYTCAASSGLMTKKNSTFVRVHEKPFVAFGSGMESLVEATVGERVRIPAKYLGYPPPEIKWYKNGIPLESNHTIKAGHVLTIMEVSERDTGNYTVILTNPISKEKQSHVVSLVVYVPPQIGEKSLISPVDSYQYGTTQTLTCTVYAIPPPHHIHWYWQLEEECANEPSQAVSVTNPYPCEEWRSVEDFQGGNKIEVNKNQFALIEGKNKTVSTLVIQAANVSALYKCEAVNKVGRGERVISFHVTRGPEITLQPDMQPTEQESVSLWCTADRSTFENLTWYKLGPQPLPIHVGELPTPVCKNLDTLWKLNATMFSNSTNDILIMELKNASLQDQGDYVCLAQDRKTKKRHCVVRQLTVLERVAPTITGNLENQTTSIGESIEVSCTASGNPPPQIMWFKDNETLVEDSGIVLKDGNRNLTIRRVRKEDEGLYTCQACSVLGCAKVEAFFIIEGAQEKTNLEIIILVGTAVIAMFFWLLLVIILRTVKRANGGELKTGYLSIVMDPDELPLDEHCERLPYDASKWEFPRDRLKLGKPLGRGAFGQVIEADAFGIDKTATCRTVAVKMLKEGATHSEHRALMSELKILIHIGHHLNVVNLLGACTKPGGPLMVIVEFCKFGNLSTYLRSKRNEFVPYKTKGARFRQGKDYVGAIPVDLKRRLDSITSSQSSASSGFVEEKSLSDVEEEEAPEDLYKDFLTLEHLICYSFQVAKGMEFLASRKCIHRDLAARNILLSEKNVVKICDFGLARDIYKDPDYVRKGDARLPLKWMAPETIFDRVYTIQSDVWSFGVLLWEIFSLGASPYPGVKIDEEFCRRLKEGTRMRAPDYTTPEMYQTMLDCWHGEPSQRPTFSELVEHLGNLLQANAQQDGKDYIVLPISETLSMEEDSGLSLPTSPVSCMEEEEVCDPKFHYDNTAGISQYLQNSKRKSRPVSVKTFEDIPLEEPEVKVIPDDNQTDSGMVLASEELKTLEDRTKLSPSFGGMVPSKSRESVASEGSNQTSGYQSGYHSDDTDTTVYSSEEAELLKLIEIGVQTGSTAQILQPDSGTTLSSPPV

SMILES	IC50 (human RET kinase)	GI50 (BAF3-KIF5B-RET cells)	IC50 (human KDR kinase)	IC50 (TT cells)
Cn1cc(-c2cc(-c3ccc(N4C[C@@H]5[C@@H](CNC(=O)c6ncccc6Cl)[C@@H]5C4)nc3)c3c(C#N)cnn3c2)cn1 [Example 73, 3-chloro-N-(((1R,5S,6s)-3-(5-(3-cyano-6-(1-methyl-1H-pyrazol-4-yl)pyrazolo[1,5-a]pyridin-4-yl)pyridin-2-yl)-3-azabicyclo[3.1.0]hexan-6-yl)methyl)picolinamide]	≤ 10 nM	≤ 10 nM	≤ 10 nM	≤ 10 nM
CC(C)(O)COc1cc(-c2ccc(N3C[C@H]4CN(C(=O)c5c(F)cccc5Cl)C[C@H]4C3)nc2)c2c(C#N)cnn2c1 [Example 9, 4-(6-((3aR,6aS)-5-(2-chloro-6-fluorobenzoyl)hexahydropyrrolo[3,4-c]pyrrol-2(1H)-yl)pyridin-3-yl)-6-(2-hydroxy-2-methylpropoxy)pyrazolo[1,5-a]pyridine-3-carbonitrile]	≤ 10 nM	10 to 50 nM	50 to 100 nM	≤ 10 nM
C[C@@]1(NC(=O)c2ncccc2Cl)C[C@H]2CN(c3ccc(-c4cc(OCC5CNCCO5)cn5ncc(C#N)c45)cn3)C[C@H]2C1 (stereo partly drawn) [Example 53]	≤ 10 nM	≤ 10 nM	10 to 50 nM	≤ 10 nM
CC(C)(O)COc1cc(-c2ccc(N3C[C@@H]4[C@H](C3)[C@H]4NC(=O)c3ncccc3Cl)nc2)c2c(C#N)cnn2c1 [Example 37, 3-chloro-N-((1R,5S,6s)-3-(5-(3-cyano-6-(2-hydroxy-2-methylpropoxy)pyrazolo[1,5-a]pyridin-4-yl)pyridin-2-yl)-3-azabicyclo[3.1.0]hexan-6-yl)picolinamide]	≤ 10 nM	> 100 nM	> 100 nM	50 to 100 nM

Continued, in another order:

IC50 (human RET kinase)	GI50 (BAF3-KIF5B-RET cells)	IC50 (human KDR kinase)	SMILES	IC50 (TT cells)
≤ 10 nM	≤ 10 nM	≤ 10 nM	Cn1cc(-c2cc(-c3ccc(N4C[C@@H]5C[C@@](C)(NC(=O)c6ncccc6C#N)C[C@@H]5C4)nc3)c3c(C#N)cnn3c2)cn1 [Example 121, 3-cyano-N-((3aR,5s,6aS)-2-(5-(3-cyano-6-(1-methyl-1H-pyrazol-4-yl)pyrazolo[1,5-a]pyridin-4-yl)pyridin-2-yl)-5-methyloctahydrocyclopenta[c]pyrrol-5-yl)picolinamide]	≤ 10 nM
≤ 10 nM	≤ 10 nM	10 to 50 nM	CC(C)(O)COc1cc(-c2ccc(N3C4CC5CC3CC(NC(=O)c3ncccc3Cl)(C5)C4)nc2)c2c(C#N)cnn2c1 [Example 135, 3-chloro-N-((1R,3S,5s,7s)-2-(5-(3-cyano-6-(2-hydroxy-2-methylpropoxy)pyrazolo[1,5-a]pyridin-4-yl)pyridin-2-yl)-2-azaadamantan-5-yl)picolinainide]	≤ 10 nM
